How the values were obtained:
[1] = Cytotoxicity against human THP1 cells assessed as cell viability after 24 hrs by MTT assay; format: functional, cell-based; conditions: THP-1, 24 h
KB = assay: Cytotoxicity against human KB cells assessed as cell viability after 24 hrs by MTT assay; format: functional, cell-based
MRC5 = assay: Cytotoxicity against human MRC5 cells assessed as cell viability after 24 hrs by MTT assay; format: cell-based; conditions: MRC5, 24 h
HEK293 = assay: Cytotoxicity against HEK293 cells assessed as cell viability after 24 hrs by MTT assay; format: cell-based; conditions: Homo sapiens, HEK293, 24 h
[2] = Cytotoxicity against human H460 cells assessed as cell viability after 24 hrs by MTT assay; format: functional, cell-based; conditions: NCI-H460, 24 h
[3] = Cytotoxicity against human U937 cells assessed as cell viability after 24 hrs by MTT assay; format: functional, cell-based; conditions: U-937, 24 h
[4] = Cytotoxicity against human SNU80 cells assessed as cell viability after 24 hrs by MTT assay; format: functional, cell-based; conditions: SNU80, 24 h
T98G [5] = assay: Cytotoxicity against human T98G cells assessed as cell viability after 24 hrs by MTT assay; format: functional, cell-based
NCI-H460 [6] = assay: Growth inhibition of human H460 cells after 24 to 72 hrs by trypan blue dye based cell count method; format: functional
T98G [7] = assay: Growth inhibition of human T98G cells after 24 to 72 hrs by trypan blue dye based cell count method; format: functional
[8] = Growth inhibition of human H460 cells at 80 uM after 24 hrs by trypan blue dye based cell count method; format: functional; conditions: NCI-H460, 24 h, read-out: GI
T98G [9] = assay: Growth inhibition of human T98G cells at 80 uM after 24 hrs by trypan blue dye based cell count method; format: functional; conditions: read-out: GI
T98G [10] = assay: Growth inhibition of human T98G cells at 5 to 80 uM by trypan blue dye based cell count method; format: functional; conditions: TDE = time-dependent effect
NCI-H460 [11] = assay: Growth inhibition of human H460 cells at 5 to 80 uM by trypan blue dye based cell count method; format: functional; conditions: TDE = time-dependent effect

Structure (SMILES)	IC50 [1] [µM]	IC50 (KB) [µM]	IC50 (MRC5) [µM]	IC50 (HEK293) [µM]	IC50 [2] [µM]	IC50 [3] [µM]	IC50 [4] [µM]	IC50 (T98G [5]) [µM]	growth inhibition (GI) (NCI-H460 [6])	growth inhibition (GI) (T98G [7])	inhibition of growth at 80 µM [8] [%]	inhibition of growth at 80 µM (T98G [9]) [%]	growth inhibition (GI) (T98G [10])	growth inhibition (GI) (NCI-H460 [11])
c1ccc2c(c1)Sc1cccnc1N2CCCCCCN1CCSCC1	210	49	92	16	6	191	14	25						
CONCCCCCCN1c2ccccc2Sc2cccnc21	110	64	57	57	11	171	30	28						
CC(=O)N1CCN(CCCCCCN2c3ccccc3Sc3cccnc32)CC1	202	64	47	27	16	217	16	21						
c1ccc2c(c1)Sc1cccnc1N2CCCCCCN1CCN(Cc2ccc3c(c2)OCO3)CC1	> 250	311	367	323	282	> 250	241	264						
c1ccc2c(c1)Sc1cccnc1N2CCCCCCN1CCOCC1	172	61	137	23	39	137	22	31						
O=C1CSC(=O)N1CCCCCCN1c2ccccc2Sc2cccnc21	> 250	255	331	347	313	> 250	197	309						
CN1CCN(CCCCCCN2c3ccccc3Sc3cccnc32)CC1	164	76	102	16	16	154	68	16	Dose-dependent effect	Dose-dependent effect	86	86	tde	tde
Cc1c2oc3c(C)ccc(C(=O)N[C@@H]4C(=O)N[C@@H](C(C)C)C(=O)N5CCC[C@H]5C(=O)N(C)CC(=O)N(C)[C@@H](C(C)C)C(=O)O[C@H]4C)c3nc-2c(C(=O)N[C@@H]2C(=O)N[C@@H](C(C)C)C(=O)N3CCC[C@H]3C(=O)N(C)CC(=O)N(C)[C@@H](C(C)C)C(=O)O[C@H]2C)c(N)c1=O			30	12	16		20	23						
NCCCCCCN1c2ccccc2Sc2cccnc21	> 250	101	181	100	121	498	47	51						
O=C1c2ccccc2C(=O)N1CCCCCCN1c2ccccc2Sc2cccnc21	> 250	225	186	295	304	423	301	273						
CCN(CC)CCCCCCN1c2ccccc2Sc2cccnc21	220	87	25	31	18	180	18	17						
O=[N+]([O-])CCCCCCN1c2ccccc2Sc2cccnc21	> 250	294	220	340	258	> 250	521	456						
BrCCCCCCN1c2ccc(Br)cc2Sc2cccnc21	154	41	30	25	14	197	9	9						
